These results are taken from patent US8796280B2, “2,3-disubstituted pyrazinesulfonamides as CRTH2 inhibitors” (Merck Serono, S.A., priority 2005, dated 2014).

The target in experiment [1] is T1, CRTH2 (Homo sapiens (Human), UniProt Q9Y5Y4). In words: Radioligand binding assay ([3H]PGD2 displacement, hCRTH2 HEK293 (EBNA) cell membranes). The following applies: 1.5 nM [3H]PGD2, 10 μg hCRTH2 HEK293 (EBNA) membrane protein, 60 min room temperature; test concentration not given. From the text: Human CRTH2 cDNA was amplified by PCR using a human urinary bladder cDNA library as a template and specific primers containing HindIII and BamHI restriction sites for cloning into the pCEP4 vector (Invitrogen). The vector construction is described in detail in Sawyer et al., Br. J. Pharmocol 2002, 137, 1163-72. The nucleotide sequence of the cloned cDNA was identical the previously reported hCRTH2 sequence (Nagata et al, 1999, J. Immunol. 162, 1278-1286).
T1 sequence (Q9Y5Y4 whole entry): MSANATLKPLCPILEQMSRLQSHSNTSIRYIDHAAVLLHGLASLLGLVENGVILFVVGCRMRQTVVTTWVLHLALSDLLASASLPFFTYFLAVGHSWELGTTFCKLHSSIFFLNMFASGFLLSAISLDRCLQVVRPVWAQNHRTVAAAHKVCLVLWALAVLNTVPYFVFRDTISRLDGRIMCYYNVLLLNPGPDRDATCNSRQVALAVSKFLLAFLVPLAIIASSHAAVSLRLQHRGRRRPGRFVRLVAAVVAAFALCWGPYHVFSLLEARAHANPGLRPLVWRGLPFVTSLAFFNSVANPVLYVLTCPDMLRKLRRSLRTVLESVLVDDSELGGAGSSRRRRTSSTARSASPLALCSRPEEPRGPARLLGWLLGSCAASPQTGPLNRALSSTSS
HEK293 (EBNA) cells were transfected with the pCEP4-hCRTH2 construct using the calcium phosphate technique. Cells were maintained in culture at 37° C. in an atmosphere of 5% CO2 in Dulbecco's modified Eagle's F12 medium (Invitrogen), containing 10% heat-inactivated foetal calf serum (TerraCell International, Canada), 2 mM Glutamine, 100 units/ml of penicillin and 100 μg/ml streptomycin (Invitrogen). 48 hours after the transfection, cells were grown in presence of 300 μg/ml of Hygromycin B (Invitrogen) for 4 weeks and antibiotic resistant cells were amplified for cell membrane preparation.
Adherent HEK293 (EBNA) cells expressing hCRTH2 were cultured in 225 cm^2 cell culture flasks (Corning, USA) in 30 ml of medium. After two rinses of phosphate buffered saline (PBS), cells were harvested in 10 ml of PBS containing 1 mM EDTA, centrifuged at 500×g for 5 min at 4° C. and frozen at −80° C. The pellet was re-suspended in 50 mM Tris-HCl, pH 7.4, 2 mM EDTA, 250 mM Sucrose, containing protease inhibitor cocktail tablets, (Complete EDTA-free, Roche, Germany) and incubated 30 min at 4° C. Cells were disrupted by nitrogen cavitation (Parr Instruments, USA) at 4° C. (800 p.s.i. for 30 min), and centrifuged at 500×g for 10 min at 4° C. Pellet containing nuclei and cellular debris was discarded and supernatant was centrifuged 60 min at 4° C. at 45000×g. Membrane pellet was re-suspended in storage buffer (10 mM HEPES/KOH pH 7.4, 1 mM EDTA, 250 mM sucrose, protease inhibitor cocktail tablets) using Dounce homogenization and frozen in liquid nitrogen, and stored at −80° C.
(§1) The inhibitory activity can be investigated by a radioligand binding assay (Sawyer et al., Br. J. Pharmocol 2002, 137, 1163-72). The radioligand binding assay was performed at room temperature in binding buffer (10 mM HEPES/KOH pH […], with protease inhibitor cocktail tablets), containing 1.5 nM [^3H]PGD2 (Amersham, 156 Cie/mmol), and 10 μg of hCRTH2 HEK293 (EBNA) cell membrane protein in a final volume of 100 μl in 96 well plates (Corning, USA). Non-specific binding was determined in the presence of 1 μM PGD2 (Cayman, USA). Competing pyrazine sulfonamides were diluted in dimethylsulphoxide so that the total volume of dimethylsulfoxide was kept constant at 1% dimethylsulphoxide (Me2SO). 10 μl of the pyrazine sulfonamides were added. Incubation (60 min at room temperature) was terminated by rapid filtration through 96 wells hydrophobic GF/C Unifilter plates (Whatman, USA). Filters were washed twice with 250 μl of Tris-HCl pH 7.4, 10 mM MnCl2, and residual radioligand bound to the filters was mixed to 100 μl of liquid scintillation cocktail (Optiphase Supermix, Perkin Elmer, USA) and binding activity was determined by counting residual radioligand using a 1450 Micro-beta scintillation counter (Wallac, UK).

For experiment [2], the target named is T1, CRTH2. The experiment is described as follows: Determination of Ki, equilibrium competition binding against [3H]PGD2. The following applies: competition against [3H]PGD2; average of at least three independent dose response experiments; Ki calculated from IC50. The method, then:
as §1
Ki values were determined by equilibrium competition binding experiments against [^3H]PGD2. Ki values were calculated from the formula below and represent the average of at least three independent dose response experiments. The Ki values give the ligand concentrations necessary to inhibit 50% of the binding of 3[H]PGD2 to CRTH2. Ki=IC50/(1+[Concentration of Ligand]/Kd)]
All experiments were performed in 96 well plates, in a final volume of 100 μl according to the above described filtration assay. The concentration of membranes and 3[H]PGD2, as well as the positive and negative controls were identical to the conditions described above.

The target in experiment [3] is T1, CRTH2. The experiment is described as follows: [35S]GTPγS binding assay. In kind it is biochemical. The following applies: inhibition of [35S]GTPγS binding, membranes expressing hCRTH2, 80 nM PGD2 (antagonist activity). The method, then:
The [^35S]GTPγS assay measures the increase in guanine nucleotide exchange at G-proteins in cell membranes, resulting from agonist (PGD2) binding to CRTH2. This process can be monitored in vitro by incubating cell membranes containing G-proteins and CRTH2 with GDP and [^35S]GTPγS, a radiolabeled, hydrolysis-resistant analogue of GTP (see, Harrison et al., Life Sciences 74, 489-508, 2003). The addition of a pyrazine sulfonamide results in binding to CRTH2 and thus in an inhibition of agonist binding, which can be monitored as inhibition of the stimulation of GTP/GDP exchange.
Assay conditions were identical to conditions of radioligand binding assay as described in Example 21. The [^35S]GTPγS binding assay was performed at 30° C. with gentle agitation in 96-well scintillating white polystyrene plates (Perkin Elmer, USA), in a final volume of 200 μl, containing 2% of dimethylsulphoxide (Me2SO). The 2,3 substituted pyrazine sulfonamides were incubated in 20 mM HEPES/KOH pH 7.4, 1 mM MgCl2, 10 μg/ml Saponin, 3 μM GDP, 150 mM NaCl containing 10 μg of membranes expressing the hCRTH2 receptor (Euroscreen, Belgium) for 10 min. Non-specific binding was determined in the presence of 10 μM of GTPγS. Samples were incubated for 30 min in the presence of increasing concentrations of PGD2 for the determination of agonist activity, or with 80 nM of PGD2 for determination of antagonist activity, respectively. 0.15 nM of [^35S]GTPγS were subsequently added to each sample and after incubation of 30 min reactions were stopped by centrifugation at 1000×g, at 4° C. for 10 min. Supernatant was removed and [^35S]GTPγS binding was determined using a 1450 Micro-beta scintillation counter. Data were analysed using “Prism” (GraphPad Software, Inc. San Diego, USA). The determination of the IC50 values (i.e. the amount necessary to achieve 50% inhibition of binding (in μM)) were performed in 96 well plates, in a final volume of 100 μl according to the above described filtration assay. […]
In general terms: GTPγS resists hydrolysis and so accumulates on activated G proteins.

Regarding `O=S(=O)(Nc1nccnc1-c1ccc(Cn2ccc3ccccc32)cc1)c1ccccc1C(F)(F)F` [Compound 1, N-{3-[4-(1H-indol-1-ylmethyl)phenyl]pyrazin-2-yl}-2-(trifluoromethyl)benzene-sulfonamide], the “Inhibition hCRTH2 [%]” value on CRTH2 [1] came to 94.5%. Further, the inhibition constant Ki – broadly, the dissociation constant of the complex between target and ligand, obtained from inhibition or displacement – on CRTH2 [2] is 1.01 µM. On CRTH2 [3], the IC50 (usually the point on the concentration scale where inhibition reaches its midpoint) was 1.9 µM.
Taken in the same sequence, the figures for `CN(Cc1ccc(-c2nccnc2NS(=O)(=O)c2ccccc2Cl)cc1)c1ccc(OC(F)(F)F)cc1` [Compound 2, 2-chloro-N-{3-[4-({methyl[4-(trifluoromethoxy)phenyl]amino}-methyl)-phenyl]pyrazin-2-yl}benzene sulfonamide] were 91.5%, 1.26 µM and 4.6 µM.
Taken in the same sequence, the figures for `CCc1nc2ccccc2n1Cc1ccc(-c2nccnc2NS(=O)(=O)c2ccccc2C(F)(F)F)cc1` [Compound 3, N-(3-{4-[(2-ethyl-1H-benzimidazol-1-yl)methyl]phenyl}pyrazin-2-yl)-2-(trifluoromethyl)benzenesulfonamide] were 86.5%, 0.45 µM and 1.4 µM.
